From patent US20160138077A1, “MONITORING AND ASSESSING DEACETYLASE ENZYME ACTIVITY” (THE GENERAL HOSPITAL CORPORATION, priority 2013, published 2016)

Experiments:
Sirtuin 1 = target: T1, Sirtuin 1 (Homo sapiens, UniProt Q96EB6); assay: LCMS assay of sirtuin enzymatic action on HP-1; format: biochemical; details: Sirtuin 1, −SAHA; 5 μM HP-1, 12 hours at 37° C.
T1 construct: purchased Cayman Chemicals
T1 sequence (Q96EB6 1-747): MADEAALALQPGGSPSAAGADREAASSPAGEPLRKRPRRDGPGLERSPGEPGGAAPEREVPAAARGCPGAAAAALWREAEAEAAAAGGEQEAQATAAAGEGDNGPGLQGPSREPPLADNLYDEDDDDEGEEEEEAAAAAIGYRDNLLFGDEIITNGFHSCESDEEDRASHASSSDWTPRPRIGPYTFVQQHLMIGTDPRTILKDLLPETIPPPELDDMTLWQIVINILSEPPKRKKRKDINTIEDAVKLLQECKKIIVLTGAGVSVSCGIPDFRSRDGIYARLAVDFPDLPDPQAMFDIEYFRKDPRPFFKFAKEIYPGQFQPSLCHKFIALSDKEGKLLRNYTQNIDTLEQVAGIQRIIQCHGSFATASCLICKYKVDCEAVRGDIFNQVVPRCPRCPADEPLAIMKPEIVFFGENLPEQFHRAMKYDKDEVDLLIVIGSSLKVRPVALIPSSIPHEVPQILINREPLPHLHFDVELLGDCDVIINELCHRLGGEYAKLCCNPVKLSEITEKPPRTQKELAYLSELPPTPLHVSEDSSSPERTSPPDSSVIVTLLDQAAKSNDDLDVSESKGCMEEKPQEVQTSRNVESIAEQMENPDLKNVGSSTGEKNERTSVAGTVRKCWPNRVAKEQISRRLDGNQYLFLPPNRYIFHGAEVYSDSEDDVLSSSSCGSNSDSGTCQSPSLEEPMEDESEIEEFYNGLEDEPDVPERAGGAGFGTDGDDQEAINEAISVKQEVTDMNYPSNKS
Experimental: (§1) The enzymatic cleavage of HP-1 was analyzed by performing LCMS assays with sirtuin 1 and 3 (Cayman Chemicals) and the proteases chymotrypsin (Sigma-Aldrich), cathepsin (EMD Millipore), and pepsin* (Sigma-Aldrich). Solutions containing (i) vehicle with DMSO in HDAC buffer, (ii) 5 μM HP-1 in HDAC buffer, and (iii) 5 μM HP-1 and the enzyme in HDAC buffer were incubated for 12 hours at 37° C. Following incubation, a 20 μL aliquot of supernatant from each sample was analyzed by LCMS. Deacetylation of HP-1 was investigated by screening for the DHP-1 (M+H)^+ ion following positive electrospray ionization. All assay samples were analyzed in triplicate. […]
(§2) HP-1 was not altered by sirtuins 1 and 3 or the proteases chymotrypsin, cathepsin and pepsin, as determined by LCMS. […] For Cathepsin B, the cleavage of the enzyme substrate, z-RR-pNA (Santa Cruz Biotechnology, Dallas, Tex.) was monitored using a Wallac EnVision 2103 Multilabel fluorescence plate reader (PerkinElmer, Waltham, Mass.) with a 405 nm excitation filter, a 406 nm emission filter, and a gain of 150. The cleavage of the pepsin substrate, Ac-Phe-Tyr-OH (Chem-Impex Inc.), was monitored by LCMS at pH 4. […]

Sirtuin 3 = target: T2, Sirtuin 3 (Homo sapiens, UniProt Q9NTG7); assay: LCMS assay of sirtuin enzymatic action on HP-1; format: biochemical; details: Sirtuin 3, −SAHA; 5 μM HP-1, 12 hours at 37° C.
T2 construct: purchased Cayman Chemicals
T2 sequence (Q9NTG7 1-399): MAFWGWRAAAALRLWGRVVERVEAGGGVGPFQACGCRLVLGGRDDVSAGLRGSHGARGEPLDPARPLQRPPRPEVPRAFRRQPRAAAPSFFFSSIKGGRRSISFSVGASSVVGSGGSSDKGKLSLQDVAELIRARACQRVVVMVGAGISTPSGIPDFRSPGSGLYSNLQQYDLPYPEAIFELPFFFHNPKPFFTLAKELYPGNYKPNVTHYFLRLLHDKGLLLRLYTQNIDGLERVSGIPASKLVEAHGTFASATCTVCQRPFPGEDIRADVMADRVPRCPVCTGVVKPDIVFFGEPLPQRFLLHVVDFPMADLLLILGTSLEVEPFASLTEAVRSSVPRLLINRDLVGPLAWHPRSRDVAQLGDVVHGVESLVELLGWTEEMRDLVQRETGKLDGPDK
Experimental: as §1, §2

CC(=O)NC=CCCCCNC(=O)CCCCCNc1ccc([N+](=O)[O-])c2nonc12 [HP-1]
% HP-1 to DHP-1 (Sirtuin 1): 0%
% HP-1 to DHP-1 (Sirtuin 3): 0%
